One may read the IC50 as the concentration that inhibits the measured activity by half.

SMILES strings stand for the structures. Some results are limits rather than exact numbers.

This experiment concerns the target rat brain cortical membranes (GABA receptor complex, [35S]-TBPS binding). Description: Steroid inhibition of [35S]-TBPS binding. Particulars: 3 nM [35S]-TBPS, in the presence of 5 mM GABA. As to the method: [^35S]-t-Butylbicyclophosphorothionate (TBPS) binding assays using rat brain cortical membranes in the presence of 5 mM GABA has been described (Gee et al, J Pharmacol. Exp. Ther. 1987, 241, 346-353; Hawkinson et al, Mol. Pharmacol. 1994, 46, 977-985; Lewin, A. H et al., Mol. Pharmacol. 1989, 35, 189-194).
Briefly, cortices are rapidly removed following decapitation of carbon dioxide-anesthetized Sprague-Dawley rats (200-250 g). The cortices are homogenized in 10 volumes of ice-cold 0.32 M sucrose using a glass/teflon homogenizer and centrifuged at 1500×g for 10 min at 4° C. The resultant supernatants are centrifuged at 10,000×g for 20 min at 4° C. to obtain the P2 pellets. The P2 pellets are resuspended in 200 mM NaCl/50 mM Na—K phosphate pH 7.4 buffer and centrifuged at 10,000×g for 10 min at 4° C. This washing procedure is repeated twice and the pellets are resuspended in 10 volumes of buffer. Aliquots ([…]) of the membrane suspensions are incubated with 3 nM [^35S]-TBPS and […] aliquots of test drug dissolved in dimethyl sulfoxide (DMSO) (final 0.5%) in the presence of 5 mM GABA. The incubation is brought to a final volume of 1.0 mL with buffer. Nonspecific binding is determined in the presence of […] and ranged from 15 to 25%. Following a 90 min incubation at room temp, the assays are terminated by filtration through glass fiber filters (Schleicher and Schuell No. 32) using a cell harvester (Brandel) and rinsed three times with ice-cold buffer. Filter bound radioactivity is measured by liquid scintillation spectrometry. Non-linear curve fitting of the overall data for each drug averaged for each concentration is done using Prism (GraphPad). […] The concentration of test compound producing 50% inhibition (IC50) of specific binding and the maximal extent of inhibition (Imax) are determined for the individual experiments with the same model used for the overall data and then the means±SEMs of the individual experiments are calculated.
Various compounds are or can be screened to determine their potential as modulators of [^35S]-TBPS binding in vitro. These assays are or can be performed in accordance with the above discussed procedures.
In the case of `CO[C@@H]1C[C@H]2[C@@H](CC[C@H]3C[C@](C)(O)CC[C@@]32C)[C@@H]2CC[C@H](C(=O)Cn3cc(C#N)cn3)[C@@]12C` [Compound 44], the IC50 was 0.01 to 0.05 µM.
With `CC(=O)[C@H]1CC[C@H]2[C@@H]3CC[C@H]4C[C@](C)(O)CC[C@]4(C)[C@H]3CC(=O)[C@]12C` [Compound 46] the figure was not below 0.5 µM; with `C[C@@]1(O)CC[C@@]2(C)[C@@H](CC[C@@H]3[C@@H]2C[C@@H](O)[C@]2(C)[C@@H](C(=O)Cn4cc(C#N)cn4)CC[C@@H]32)C1` [Compound 47], not below 0.5 µM; with `C[C@@]1(O)CC[C@@]2(C)[C@@H](CC[C@@H]3[C@@H]2CC(=O)[C@]2(C)[C@@H](C(=O)Cn4cc(C#N)cn4)CC[C@@H]32)C1` [Compound 48], not below 0.5 µM.
With `C[C@@]1(O)CC[C@@]2(C)[C@@H](CC[C@@H]3[C@@H]2C[C@@H](O)[C@]2(C)[C@@H](C(=O)Cn4cc5ccncc5n4)CC[C@@H]32)C1` [Compound 49] the figure was 0.1 to 0.5 µM; with `C[C@@]1(O)CC[C@@]2(C)[C@@H](CC[C@@H]3[C@@H]2C[C@@H](O)[C@]2(C)[C@@H](C(=O)Cn4ncc5ccncc54)CC[C@@H]32)C1` [Compound 50], not below 0.5 µM; with `CO[C@H]1C[C@H]2[C@@H](CC[C@H]3C[C@](C)(O)CC[C@@]32C)[C@@H]2CC[C@@H](C(C)=O)[C@@]12C` [Compound 51], not below 0.5 µM.
To `CO[C@H]1C[C@H]2[C@@H](CC[C@H]3C[C@](C)(O)CC[C@@]32C)[C@@H]2CC[C@H](C(C)=O)[C@@]12C` [Compound 52] belongs not below 0.5 µM; to `CO[C@H]1C[C@H]2[C@@H](CC[C@H]3C[C@](C)(O)CC[C@@]32C)[C@@H]2CC[C@H](C(=O)Cn3cc(C#N)cn3)[C@@]12C` [Compound 53], not below 0.5 µM.
In the case of `CO[C@H]1C[C@H]2[C@@H](CC[C@H]3C[C@](C)(O)CC[C@@]32C)[C@@H]2CC[C@H](C(=O)Cn3cc4ccncc4n3)[C@@]12C` [Compound 54], the half-maximal inhibitory concentration (IC50) was not below 0.5 µM.
To `CO[C@H]1C[C@H]2[C@@H](CC[C@H]3C[C@](C)(O)CC[C@@]32C)[C@@H]2CC[C@H](C(=O)Cn3ncc4ccncc43)[C@@]12C` [Compound 55] belongs not below 0.5 µM.
With `CO[C@@H]1C[C@H]2[C@@H](CC[C@@H]3C[C@](C)(O)CC[C@@H]32)[C@@H]2CC[C@H](C(C)=O)[C@@]12C` [Compound 56] the figure was 0.05 to 0.1 µM; with `CO[C@@H]1C[C@H]2[C@@H](CC[C@@H]3C[C@](C)(O)CC[C@@H]32)[C@@H]2CC[C@H](C(=O)Cn3nnnc3C)[C@@]12C` [Compound 59], 0.1 to 0.5 µM.
To `CO[C@@H]1C[C@H]2[C@@H](CC[C@H]3C[C@](C)(O)CC[C@@]32C)[C@@H]2CC[C@H](C(=O)Cn3nnnc3C)[C@@]12C` [Compound 61] belongs 0.1 to 0.5 µM; to `CO[C@@H]1C[C@H]2[C@@H](CC[C@H]3C[C@](C)(O)CC[C@@]32C)[C@@H]2CC[C@H](C(=O)Cn3cc4ccncc4n3)[C@@]12C` [Compound 62], 0.01 to 0.05 µM.
`CO[C@@H]1C[C@H]2[C@@H](CC[C@H]3C[C@](C)(O)CC[C@@]32C)[C@@H]2CC[C@H](C(=O)Cn3ncc4ccncc43)[C@@]12C` [Compound 63]: the concentration for half-maximal inhibition (IC50) is 0.1 to 0.5 µM.
Regarding `CC(=O)[C@H]1[C@H](C)C[C@H]2[C@@H]3CC[C@H]4C[C@](C)(O)CC[C@]4(C)[C@H]3CC[C@@]21C` [Compound 64], the 50% inhibitory concentration (IC50) fell in the range of 0.1 to 0.5 µM.
Consider `CC[C@@H]1C[C@H]2[C@@H]3CC[C@H]4C[C@](C)(O)CC[C@]4(C)[C@H]3CC[C@]2(C)[C@H]1C(C)=O` [Compound 65], for which the IC50 is not below 0.5 µM.
On to `C[C@@H]1C[C@H]2[C@@H]3CC[C@H]4C[C@](C)(O)CC[C@]4(C)[C@H]3CC[C@]2(C)[C@H]1C(=O)Cn1cc(C#N)cn1` [Compound 66], for which the half-maximal inhibitory concentration (IC50) was 0.01 to 0.05 µM.
For the molecule `COc1ccc2nn(CC(=O)[C@H]3[C@H](C)C[C@H]4[C@@H]5CC[C@H]6C[C@](C)(O)CC[C@]6(C)[C@H]5CC[C@@]43C)nc2c1` [Compound 67], the concentration for half-maximal inhibition (IC50) fell in the range of 0.01 to 0.05 µM.
Consider `COc1ccc2nnn(CC(=O)[C@H]3[C@H](C)C[C@H]4[C@@H]5CC[C@H]6C[C@](C)(O)CC[C@]6(C)[C@H]5CC[C@@]43C)c2c1` [Compound 68], for which the IC50 lay within 0.01 to 0.05 µM.
As to `COc1ccc2c(c1)nnn2CC(=O)[C@H]1[C@H](C)C[C@H]2[C@@H]3CC[C@H]4C[C@](C)(O)CC[C@]4(C)[C@H]3CC[C@@]21C` [Compound 69], the IC50 fell in the range of 0.01 to 0.05 µM.
To `CC[C@@H]1C[C@H]2[C@@H]3CC[C@H]4C[C@](C)(O)CC[C@]4(C)[C@H]3CC[C@]2(C)[C@H]1C(=O)Cn1nc2ccc(OC)cc2n1` [Compound 70] belongs not below 0.5 µM; to `CC[C@@H]1C[C@H]2[C@@H]3CC[C@H]4C[C@](C)(O)CC[C@]4(C)[C@H]3CC[C@]2(C)[C@H]1C(=O)Cn1nnc2ccc(OC)cc21` [Compound 71], not below 0.5 µM; to `CC[C@@H]1C[C@H]2[C@@H]3CC[C@H]4C[C@](C)(O)CC[C@]4(C)[C@H]3CC[C@]2(C)[C@H]1C(=O)Cn1nnc2cc(OC)ccc21` [Compound 72], not below 0.5 µM.
Consider `CC(=O)[C@H]1[C@H](C(C)C)C[C@H]2[C@@H]3CC[C@H]4C[C@](C)(O)CC[C@]4(C)[C@H]3CC[C@@]21C` [Compound 73], for which the IC50 is not below 0.5 µM.
With `CC[C@@H]1C[C@H]2[C@@H]3CC[C@H]4C[C@](C)(O)CC[C@]4(C)[C@H]3CC[C@]2(C)[C@H]1C(=O)Cn1cc(C#N)cn1` [Compound 74] the figure was not below 0.5 µM.
Consider `CC(C)[C@@H]1C[C@H]2[C@@H]3CC[C@H]4C[C@](C)(O)CC[C@]4(C)[C@H]3CC[C@]2(C)[C@H]1C(=O)Cn1ncc2ccncc21` [Compound 75], for which the half-maximal inhibitory concentration (IC50) is not below 0.5 µM.
To `CC(C)[C@@H]1C[C@H]2[C@@H]3CC[C@H]4C[C@](C)(O)CC[C@]4(C)[C@H]3CC[C@]2(C)[C@H]1C(=O)Cn1cc2ccncc2n1` [Compound 76] belongs not below 0.5 µM; to `COc1ccc2nn(CC(=O)[C@H]3[C@H](C(C)C)C[C@H]4[C@@H]5CC[C@H]6C[C@](C)(O)CC[C@]6(C)[C@H]5CC[C@@]43C)nc2c1` [Compound 77], not below 0.5 µM; to `CC(C)[C@@H]1C[C@H]2[C@@H]3CC[C@H]4C[C@](C)(O)CC[C@]4(C)[C@H]3CC[C@]2(C)[C@H]1C(=O)Cn1cc(C#N)cn1` [Compound 88], not below 0.5 µM.
In the case of `Cc1nnn(CC(=O)[C@H]2[C@H](C)C[C@H]3[C@@H]4CC[C@H]5C[C@](C)(O)CC[C@]5(C)[C@H]4CC[C@@]32C)n1` [Compound 89], the IC50 lay within 0.01 to 0.05 µM.
For `Cc1nnnn1CC(=O)[C@H]1[C@H](C)C[C@H]2[C@@H]3CC[C@H]4C[C@](C)(O)CC[C@]4(C)[C@H]3CC[C@@]21C` [Compound 90], the IC50 fell in the range of 0.1 to 0.5 µM.
